Measured values taken from patent US20030004148A1, “Regulation of meiosis” (priority 1994, published 2003).

What was measured:
[1] = system: denuded oocytes, DO; assay: Oocyte test, denuded oocytes (DO); format: cell-based, mice; details: HX-medium, 24 hours culture
Protocol: (§1) Animals: Immature female mice (B6D2-F1, strain C57B1/2J) were kept under controlled lighting (14 hr light, 10 hr dark) and temperature, with food and water ad libitum. When the animals reached a weight of 13-16 grams (which correspond to the age of 20 to 22 days post partum) they were given a single injection (i.p.) of human menopausal gonadotropin (Humegon, Organon, The Netherlands) containing approximately 20 IU FSH and 20 IU LH (Ziebe, S. et al. Hum. Reprod. 8(1993) 385-88). 48 hours later the animals were killed by cervical dislocation.
(§2) Collection and culture of oocytes: The ovaries were removed, placed in HX-medium (se below) and freed of extraneous tissue. The collection- and culture medium consisted of Eagles minimum essential medium (Flow, USA), containing 4 mM hypoxanthine, 3 mg/ml of bovine serum albumin, 0.23 mM sodium pyruvate, 2 mM glutamine, 100 U/ml of penicillin, and […] of streptomycin (all Sigma, USA). This medium is termed HX-medium. The same medium but without HX was used as control medium.
(§3) The antral follicles of the ovaries were punctured under a dissecting microscope using a 27-gauge needle. Cumulus enclosed oocyte (CEO) of uniform size were selected and rinsed three times in fresh HX-medium.
(§4) Oocytes freed from cumulus cells, i.e. denuded oocytes, DO, were obtained by gentle flushing CEO through a fine-bore mouth-controlled pipet. CEO and DO were cultured in 4-well multidishes (Nunclon, Denmark) containing 0.5 ml of HX-medium except the controls which were cultured in control medium. Each well contained 35 to 50 oocytes.
(§5) The cultures were performed at 37° C. and 100% humidity with 5% CO2 in air. The culture time was 24 hours.
(§6) Examination of oocytes: By the end of the culture period the number of oocytes with germinal vesicle (GV) or germinal vesicle breakdown (GVBD) and those with polar body (PB) was counted in an inverted microscope with differential interference contrast equipment. The percentage of oocytes with GVBD per total number of oocytes and the percentage of oocytes with PB per GVBD was calculated. One unit of MIS activity is defined as: [formula]
(§7) and the number of MIS activity units is calculated as: [formula]

[2] = system: Cumulus enclosed oocyte (CEO); assay: Oocyte test, cumulus enclosed oocytes (CEO); format: cell-based, mice; details: HX-medium, 24 hours culture
Protocol: as §1, §2, §3, §4, §5, §6, §7

[3] = system: oocytes of isolated perfused ovaries; assay: GVB in isolated perfused ovaries from immature rats; parameters: species or system Immature Sprague-Dawley rats; details: for % GVB (oocytes undergoing germinal vesicle breakdown per total oocytes per ovary), mean±sd: perfusion up to 12 h, 7 ovaries
Protocol: Animals and Experimental Procedure: Immature Sprague-Dawley rats (body weight: 50-55 g) were injected s.c. with 20 IU pregnant mare serum gonadotropin (PMSG). 48 hours later, the rats were anesthetized with a combination of Ketavet/Rompun (105 and 8.3 mg/kg BW, respectively). Heparin sulfate (300 IU) was injected into the tail vein.
Ovaries with connecting vasculature were surgically isolated and perfusions were performed in a recirculating system (Koos RD et al. (1984) Biol Reprod 30:1135-1141) containing approximately 35 ml of perfusion medium (Medium 199 with Earle's salts supplemented with 50 μg/ml gentamycin sulfate, 0.2 IU/ml insulin, and 4% BSA).
The ovaries were initially perfused for approximately 1 hour to allow metabolic stabilization of the tissue. Only the ovarian specimens which maintained a flow rate between 0.8 and 1.5 ml/min at pressure of 80 mmHg during the stabilization period were used in the experiments.
After 1 hour of preperfusion, the effect of 4,4-dimethyl-5^α-cholesta-8,14,24-triene-3^β-ol (FF-MAS), IBMX (iso-butyl-methyl-xanthine), LH (luteinizing hormone), and cholesterol were tested by dividing the ovarian specimens into control and experimental groups. Additions to the perfusion medium were made as follows:
Prior to addition to the perfusion medium, FF-MAS and cholesterol were diluted in ethanol, and LH and IBMX were diluted in perfusion medium. For the investigation of meiosis, perfusions were continued up to 12 h after addition of the compounds.
At termination of each perfusion ovaries were dissected free from adherent tissue and oocytes isolated under a stereo microscope by manual rupture of the follicles using a pair of 27 gauge needles. Oocytes per ovary were counted and examined using Nomarski differential interference contrast optics.
Oocytes with a germinal vesicle breakdown (GVB) were regarded as undergoing meiotic maturation (Tsafiri et al. (1980) J. Reprod. Fertil. 60:399-402). The % GVB, defined as percentage of oocytes undergoing GVB per total number of oocytes in each ovary was calculated. Each experimental group consisted of 7 perfused ovaries. Data are presented as mean±sd. Statistical differences were calculated by one-way ANOVA followed by Students's t-test. P-values<0.05 indicated a statistically significant higher % GVB in treated groups compared to the control.

Which melting point does the source give for `CC(=O)OC1CC[C@]2(C)C3=C(CCC2C1(C)C)C1=CC[C@H]([C@H](C)CCCC(C)C)[C@@]1(C)CC3` (some centres unmarked) here?
The melting point was 120 to 125 °C.

Which “DO, units of MIS activity” value ([1]; 0.002 μg/ml) does the source give for `CC(C)=CCC[C@@H](C)[C@H]1CC[C@H]2C3=C(CC[C@]12C)[C@@]1(C)CC[C@H](O)C(C)(C)[C@@H]1CC3` [4,4-Dimethyl-zymosterol, 4,4-dimethyl-^5α-cholesta-8,24-diene-^3β-ol] here?
The value was 0.9 units of MIS activity.

What about the “DO, units of MIS activity” value ([1]; 0.02 μg/ml) of the same molecule?
Its value is 1.5 units of MIS activity.

And the “DO, units of MIS activity” value ([1]; 0.2 μg/ml)?
The value was 0.6 units of MIS activity.

And the “DO, units of MIS activity” value ([1]; 0.3 μg/ml)?
The value was 1.8 units of MIS activity.

And the “DO, units of MIS activity” value ([1]; 1.2 μg/ml)?
The value was 2.7 units of MIS activity.

What about the “CEO, units of MIS activity” value ([2]; 0.002 μg/ml) of the same molecule?
The value was 1.0 units of MIS activity.

And the “CEO, units of MIS activity” value ([2]; 0.02 μg/ml)?
Its value is 1.3 units of MIS activity.

And the “CEO, units of MIS activity” value ([2]; 0.2 μg/ml)?
Its value is 1.3 units of MIS activity.

And the “CEO, units of MIS activity” value ([2]; 0.3 μg/ml)?
The value was 2.7 units of MIS activity.

And the “CEO, units of MIS activity” value ([2]; 1.2 μg/ml)?
Its value is 2.9 units of MIS activity.

Which “DO, units of MIS activity” value ([1]; 0.03 μg/ml) does the source give for `CC(C)CCC[C@@H](C)[C@H]1CC[C@H]2C3=C(CC[C@]12C)[C@@]1(C)CC[C@H](O)C(C)(C)C1CC3` (stereo partly drawn) [4,4-Dimethylcholest-8-ene-^3β-ol] here?
Its value is 0.8 units of MIS activity.

What about the “CEO, units of MIS activity” value ([2]; 0.03 μg/ml) of the same molecule?
Its value is 12.8 units of MIS activity.

Which “DO, units of MIS activity” value ([1]; 3.0 μg/ml) does the source give for `CC(C)CCC[C@@H](C)[C@H]1CC=C2C3=C(CC[C@@]21C)[C@@]1(C)CC[C@H](O)C(C)(C)C1CC3` (stereo partly drawn) [4,4-Dimethylcholesta-8,14-dien-^3β-ol, 4,4-Dimethylcholesta-8,14-Dien-^3β-ol] here?
Its value is 2.25 units of MIS activity.

What about the “CEO, units of MIS activity” value ([2]; 3.0 μg/ml) of the same molecule?
The value was 0 units of MIS activity.

Which “DO, units of MIS activity” value ([1]; 0.03 μg/ml) does the source give for `CC(C)=CCC[C@@H](C)[C@H]1CC=C2C3=C(CC[C@@]21C)[C@@]1(C)CC[C@H](O)C(C)(C)[C@@H]1CC3` [4,4-dimethyl-^5α-cholesta-8,14,24-triene-^3β-ol] here?
Its value is 1.6 units of MIS activity.

What about the “DO, units of MIS activity” value ([1]; 0.3 μg/ml) of the same molecule?
Its value is 0.6 units of MIS activity.

What about the “CEO, units of MIS activity” value ([2]; 0.03 μg/ml) of the same molecule?
Its value is 0.5 units of MIS activity.

What about the “CEO, units of MIS activity” value ([2]; 0.3 μg/ml) of the same molecule?
Its value is 2.3 units of MIS activity.

What about the “% GVB (oocytes undergoing germinal vesicle breakdown per total oocytes per ovary), mean±sd” value ([3]; 30 μM with 0.2 mM IBMX) of the same molecule?
Its value is 14.6±4.2%.

What about the “% GVB (oocytes undergoing germinal vesicle breakdown per total oocytes per ovary), mean±sd” value ([3]; 60 μM with 0.2 mM IBMX) of the same molecule?
The value was 66.9±7.4%.

And the effective dose ([3]; corresponds to the effective 30-60 μM in perfused rat ovaries)?
Its effective dose is 12-24 mg/liter bood volume.

Which “DO, units of MIS activity” value ([1]; 0.01 μg/ml) does the source give for `CC(C)=CCC[C@@H](C)[C@H]1CC[C@H]2C3=C(CC[C@]12C)[C@@]1(C)CC[C@H](O)C[C@@H]1CC3` [Zymosterol] here?
Its value is 0.6 units of MIS activity.

And the “DO, units of MIS activity” value ([1]; 0.1 μg/ml)?
The value was 1.2 units of MIS activity.

What about the “CEO, units of MIS activity” value ([2]; 0.001 μg/ml) of the same molecule?
Its value is 0.2 units of MIS activity.

And the “CEO, units of MIS activity” value ([2]; 0.01 μg/ml)?
Its value is 0.4 units of MIS activity.

And the “CEO, units of MIS activity” value ([2]; 0.1 μg/ml)?
The value was 1.1 units of MIS activity.

With `CC(C)=CCC[C@@H](C)[C@H]1CC[C@H]2C3=C(CC[C@]12C)[C@@]1(C)CC[C@H](O)[C@H](C)[C@@H]1CC3` [^4β-Methylzymosterol, 4^β-Methylzymosterol] as the molecule, how does the “DO, units of MIS activity” value ([1]; 0.13 μg/ml) read?
The value was 0.8 units of MIS activity.

What about the “DO, units of MIS activity” value ([1]; 3.9 μg/ml) of the same molecule?
Its value is 6.2 units of MIS activity.

And the “CEO, units of MIS activity” value ([2]; 0.13 μg/ml)?
Its value is 2.4 units of MIS activity.

And the “CEO, units of MIS activity” value ([2]; 3.9 μg/ml)?
The value was 3.5 units of MIS activity.

Which “% GVB (oocytes undergoing germinal vesicle breakdown per total oocytes per ovary), mean±sd” value ([3]; 60 μM with 0.2 mM IBMX) does the source give for `CC(C)CCC[C@@H](C)[C@H]1CC[C@H]2[C@@H]3CC=C4C[C@@H](O)CC[C@]4(C)[C@H]3CC[C@]12C` [cholesterol, reference compound] here?
Its value is 2.1±1.8%.
